Test results as given in patent US20250353891A1 (MEDIMMUNE LIMITED, priority 2022, published 2025).
Starred links: 1 amine or outer side, 2 acyl side, 3 side chain; linkers in the order of their positions; H or OH if unused. Non-standard residues stand in square brackets, D forms with d. Residues, ends and D or L forms follow the SMILES beside them. Groups on a side chain read outwards from the residue. *: point of attachment. C18 diacid = O=C(O)CCCCCCCCCCCCCCCCC(=O)*; γGlu = O=C(O)[C@H](CCC(=O)[*:2])N[*:1]; Stearoyl = CCCCCCCCCCCCCCCCCC(=O)*; Palmitoyl = CCCCCCCCCCCCCCCC(=O)*; αMeF = C[C@](N)(Cc1ccccc1)C(=O)O; PEG2 = NCCOCCOCCC(=O)O; AEEA = NCCOCCOCC(=O)O; Aib = CC(C)(N)C(=O)O

Key:
[1] = target: human glucagon receptor (hGCGR) (Homo sapiens, UniProt P47871); test: cAMP production (HTRF) in CHO cells expressing hGCGR; assay type: cell-based; set-up: expressed in transfected cells; conditions: Table 6, peptides modified at position 17; cAMP in CHO hGCGR cells; geometric mean; read-out: hGluc-R EC50
Sequence of human glucagon receptor (hGCGR) (P47871 26-477): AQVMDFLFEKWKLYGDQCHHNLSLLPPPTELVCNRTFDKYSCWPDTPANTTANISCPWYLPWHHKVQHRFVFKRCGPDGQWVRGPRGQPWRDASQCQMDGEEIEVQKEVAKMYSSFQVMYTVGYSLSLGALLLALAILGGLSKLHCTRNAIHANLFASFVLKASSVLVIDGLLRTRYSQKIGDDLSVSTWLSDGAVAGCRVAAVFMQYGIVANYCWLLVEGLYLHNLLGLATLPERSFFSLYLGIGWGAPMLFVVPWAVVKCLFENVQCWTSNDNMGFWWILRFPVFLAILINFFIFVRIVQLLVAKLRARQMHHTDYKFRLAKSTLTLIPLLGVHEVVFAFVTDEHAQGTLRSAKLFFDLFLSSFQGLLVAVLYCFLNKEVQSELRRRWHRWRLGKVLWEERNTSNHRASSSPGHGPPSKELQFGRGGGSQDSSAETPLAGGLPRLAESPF
In short: (§1)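 Read-out: HTRF cAMP (anti-cAMP cryptate donor, cAMP-d2 acceptor in conjugate/lysis buffer), converted to % Delta F and fitted by 4-parameter logistic for EC50. Cell densities were 1×10^5 cells/mL (hGLP-1R) or 2×10^5 cells/mL (hGCGR). Stimulation lasted 30 min at room temperature.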

[2] = target: human GLP-1 receptor (hGLP-1R) (Homo sapiens, UniProt P43220); test: cAMP production (HTRF) in CHO cells expressing hGLP-1R; assay type: cell-based; set-up: expressed in transfected cells; conditions: for EC50: Table 6, peptides modified at position 17, cAMP in CHO hGLP-1R cells, geometric mean, read-out: hGLP-1R EC50; for % Relative Potency Ratio: Table 6, % GLP-1R activity relative to GLP-1 / % GlucR activity relative to glucagon
Sequence of human GLP-1 receptor (hGLP-1R) (P43220 24-463): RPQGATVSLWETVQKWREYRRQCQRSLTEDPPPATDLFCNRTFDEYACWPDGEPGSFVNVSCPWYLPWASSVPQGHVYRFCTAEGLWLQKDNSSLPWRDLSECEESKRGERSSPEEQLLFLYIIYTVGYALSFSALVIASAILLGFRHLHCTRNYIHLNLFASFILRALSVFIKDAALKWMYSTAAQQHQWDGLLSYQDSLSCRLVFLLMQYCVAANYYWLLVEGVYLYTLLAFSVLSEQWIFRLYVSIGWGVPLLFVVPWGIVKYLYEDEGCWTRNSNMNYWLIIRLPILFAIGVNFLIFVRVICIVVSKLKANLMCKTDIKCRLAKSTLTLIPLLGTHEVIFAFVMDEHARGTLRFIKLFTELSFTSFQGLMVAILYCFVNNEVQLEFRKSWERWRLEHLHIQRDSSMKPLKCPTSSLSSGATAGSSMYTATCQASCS
In short: as §1

EC50 [1] [pM] | EC50 [2] [pM] | % Relative Potency Ratio [2] | SMILES
99.1 | 65.9 | 3.0 | CCCCCCCCCCCCCCCC(=O)N[C@@H](CCC(=O)N[C@@H](CCC(=O)NCCOCCOCCC(=O)NCCOCCOCCC(=O)NCCCC[C@H](NC(=O)[C@H](CO)NC(=O)[C@H](CC(=O)O)NC(=O)[C@H](CC(C)C)NC(=O)C(C)(C)NC(=O)[C@H](CCCCN)NC(=O)[C@H](CO)NC(=O)[C@@H](NC(=O)[C@H](CC(=O)O)NC(=O)[C@H](CO)NC(=O)[C@@H](NC(=O)[C@](C)(Cc1ccccc1)NC(=O)[C@H](CO)NC(=O)CNC(=O)[C@H](CCC(N)=O)NC(=O)[C@H](CO)NC(=O)[C@@H](N)Cc1c[nH]cn1)[C@@H](C)O)C(C)C)C(=O)N[C@@H](CCC(N)=O)C(=O)N[C@@H](C)C(=O)N[C@@H](CCC(N)=O)C(=O)N[C@@H](CC(=O)O)C(=O)N[C@@](C)(Cc1ccccc1)C(=O)N[C@H](C(=O)N[C@@H](CCC(N)=O)C(=O)N[C@@H](Cc1c[nH]cn1)C(=O)N[C@H](C(=O)N[C@@H](C)C(=O)N[C@@H](CC(N)=O)C(N)=O)[C@@H](C)CC)C(C)C)C(=O)O)C(=O)O [Peptide 107] (H-HSQGS[αMeF]TSDVSK[Aib]LDSK([PEG2-PEG2-γGlu-γGlu-Palmitoyl])QAQD[αMeF]VQHIAN-NH2; N-terminus assumed)
> 27100 | 3200 |  | CC[C@H](C)[C@H](NC(=O)C(C)(C)NC(=O)[C@H](CCC(N)=O)NC(=O)[C@@H](NC(=O)[C@](C)(Cc1ccccc1)NC(=O)[C@H](CC(=O)O)NC(=O)[C@H](CCC(N)=O)NC(=O)[C@H](C)NC(=O)[C@H](C)NC(=O)[C@H](CCCCNC(=O)COCCOCCNC(=O)COCCOCCNC(=O)CC[C@H](NC(=O)CCCCCCCCCCCCCCCCC(=O)O)C(=O)O)NC(=O)[C@H](CO)NC(=O)[C@H](CC(=O)O)NC(=O)[C@H](CC(C)C)NC(=O)C(C)(C)NC(=O)[C@H](CCCCN)NC(=O)[C@H](CO)NC(=O)[C@@H](NC(=O)[C@H](CC(=O)O)NC(=O)[C@H](CO)NC(=O)[C@@H](NC(=O)[C@](C)(Cc1ccccc1)NC(=O)[C@H](CO)NC(=O)CNC(=O)[C@H](CCC(N)=O)NC(=O)[C@H](CO)NC(=O)[C@@H](N)Cc1c[nH]cn1)[C@@H](C)O)C(C)C)C(C)C)C(=O)N[C@@H](C)C(=O)N[C@@H](CC(N)=O)C(N)=O [Peptide 108] (H-HSQGS[αMeF]TSDVSK[Aib]LDSK([AEEA-AEEA-γGlu-C18 diacid])AAQD[αMeF]VQ[Aib]IAN-NH2; N-terminus assumed)
> 26800 | 698 |  | CC[C@H](C)[C@H](NC(=O)C(C)(C)NC(=O)[C@H](CCC(N)=O)NC(=O)[C@@H](NC(=O)[C@](C)(Cc1ccccc1)NC(=O)[C@H](CC(=O)O)NC(=O)[C@H](CCC(N)=O)NC(=O)[C@H](C)NC(=O)[C@H](C)NC(=O)[C@H](CCCCNC(=O)COCCOCCNC(=O)COCCOCCNC(=O)CC[C@H](NC(=O)CCCCCCCCCCCCCCCCC(=O)O)C(=O)O)NC(=O)[C@H](CO)NC(=O)[C@H](CC(=O)O)NC(=O)[C@H](CC(C)C)NC(=O)C(C)(C)NC(=O)[C@H](CCCCNC(C)=O)NC(=O)[C@H](CO)NC(=O)[C@@H](NC(=O)[C@H](CC(=O)O)NC(=O)[C@H](CO)NC(=O)[C@@H](NC(=O)[C@](C)(Cc1ccccc1)NC(=O)[C@H](CO)NC(=O)CNC(=O)[C@H](CCC(N)=O)NC(=O)[C@H](CO)NC(=O)[C@@H](N)Cc1c[nH]cn1)[C@@H](C)O)C(C)C)C(C)C)C(=O)N[C@@H](C)C(=O)N[C@@H](CC(N)=O)C(N)=O [Peptide 109] (H-HSQGS[αMeF]TSDVSK(Ac)[Aib]LDSK([AEEA-AEEA-γGlu-C18 diacid])AAQD[αMeF]VQ[Aib]IAN-NH2; N-terminus assumed)
48.5 |  | 152.9 | CCCCCCCCCCCCCCCCCC(=O)N[C@@H](CCC(=O)N[C@@H](CCC(=O)NCCOCCOCCC(=O)NCCOCCOCCC(=O)NCCCC[C@H](NC(=O)[C@H](CO)NC(=O)[C@H](CC(=O)O)NC(=O)[C@H](CC(C)C)NC(=O)C(C)(C)NC(=O)[C@H](CCCCNC(C)=O)NC(=O)[C@H](CO)NC(=O)[C@@H](NC(=O)[C@H](CC(=O)O)NC(=O)[C@H](CO)NC(=O)[C@@H](NC(=O)[C@](C)(Cc1ccccc1)NC(=O)[C@H](CO)NC(=O)CNC(=O)[C@H](CCC(N)=O)NC(=O)[C@H](CO)NC(=O)[C@@H](N)Cc1c[nH]cn1)[C@@H](C)O)C(C)C)C(=O)N[C@@H](C)C(=O)N[C@@H](C)C(=O)N[C@@H](CCC(N)=O)C(=O)N[C@@H](CC(=O)O)C(=O)N[C@@](C)(Cc1ccccc1)C(=O)N[C@H](C(=O)N[C@@H](CCC(N)=O)C(=O)NC(C)(C)C(=O)N[C@H](C(=O)N[C@@H](C)C(=O)N[C@@H](CC(N)=O)C(N)=O)[C@@H](C)CC)C(C)C)C(=O)O)C(=O)O [Peptide 110] (H-HSQGS[αMeF]TSDVSK(Ac)[Aib]LDSK([PEG2-PEG2-γGlu-γGlu-Stearoyl])AAQD[αMeF]VQ[Aib]IAN-NH2; N-terminus assumed)
2.09 | 1.92 | 2.2 | CCCCCCCCCCCCCCCC(=O)N[C@@H](CCC(=O)N[C@@H](CCC(=O)NCCOCCOCCC(=O)NCCOCCOCCC(=O)NCCCC[C@H](NC(=O)[C@H](CO)NC(=O)[C@H](CC(=O)O)NC(=O)[C@H](CC(C)C)NC(=O)[C@@H](NC(=O)[C@H](CCCCN)NC(=O)[C@H](CO)NC(=O)[C@@H](NC(=O)[C@H](CC(=O)O)NC(=O)[C@H](CO)NC(=O)[C@@H](NC(=O)[C@](C)(Cc1ccccc1)NC(=O)[C@H](CO)NC(=O)CNC(=O)[C@H](CCC(N)=O)NC(=O)[C@H](CO)NC(=O)[C@@H](N)Cc1c[nH]cn1)[C@@H](C)O)C(C)C)[C@@H](C)CC)C(=O)N[C@@H](C)C(=O)N[C@@H](C)C(=O)N[C@@H](CCC(N)=O)C(=O)N[C@@H](CC(=O)O)C(=O)N[C@@](C)(Cc1ccccc1)C(=O)N[C@H](C(=O)N[C@@H](CCC(N)=O)C(=O)NC(C)(C)C(=O)N[C@H](C(=O)N[C@@H](C)C(=O)N[C@@H](CC(N)=O)C(N)=O)[C@@H](C)CC)C(C)C)C(=O)O)C(=O)O [Peptide 111] (H-HSQGS[αMeF]TSDVSKILDSK([PEG2-PEG2-γGlu-γGlu-Palmitoyl])AAQD[αMeF]VQ[Aib]IAN-NH2)
2.69 | 3.36 | 1.6 | CCCCCCCCCCCCCCCC(=O)N[C@@H](CCC(=O)N[C@@H](CCC(=O)NCCOCCOCCC(=O)NCCOCCOCCC(=O)NCCCC[C@H](NC(=O)[C@H](CO)NC(=O)[C@H](CC(=O)O)NC(=O)[C@H](CC(C)C)NC(=O)[C@@H](NC(=O)[C@H](CCCCN)NC(=O)[C@H](CO)NC(=O)[C@@H](NC(=O)[C@H](CC(=O)O)NC(=O)[C@H](CO)NC(=O)[C@@H](NC(=O)[C@](C)(Cc1ccccc1)NC(=O)[C@H](CO)NC(=O)CNC(=O)[C@H](CCC(N)=O)NC(=O)[C@H](CO)NC(=O)[C@@H](N)Cc1c[nH]cn1)[C@@H](C)O)C(C)C)[C@@H](C)CC)C(=O)N[C@@H](C)C(=O)N[C@@H](C)C(=O)N[C@@H](CCC(N)=O)C(=O)N[C@@H](CC(=O)O)C(=O)N[C@@](C)(Cc1ccccc1)C(=O)N[C@H](C(=O)N[C@@H](CCC(N)=O)C(=O)N[C@H](C(=O)N[C@H](C(=O)N[C@@H](C)C(=O)N[C@@H](CC(N)=O)C(N)=O)[C@@H](C)CC)[C@@H](C)CC)C(C)C)C(=O)O)C(=O)O [Peptide 112] (H-HSQGS[αMeF]TSDVSKILDSK([PEG2-PEG2-γGlu-γGlu-Palmitoyl])AAQD[αMeF]VQIIAN-NH2)
4.6 | 1.61 | 5.6 | CCCCCCCCCCCCCCCC(=O)N[C@@H](CCC(=O)N[C@@H](CCC(=O)NCCOCCOCCC(=O)NCCOCCOCCC(=O)NCCCC[C@H](NC(=O)[C@H](CO)NC(=O)[C@H](CC(=O)O)NC(=O)[C@H](CC(C)C)NC(=O)[C@@H](NC(=O)[C@H](CCCCN)NC(=O)[C@H](CO)NC(=O)[C@@H](NC(=O)[C@H](CC(=O)O)NC(=O)[C@H](CO)NC(=O)[C@@H](NC(=O)[C@](C)(Cc1ccccc1)NC(=O)[C@H](CO)NC(=O)CNC(=O)[C@H](CCC(N)=O)NC(=O)[C@H](CO)NC(=O)[C@@H](N)Cc1c[nH]cn1)[C@@H](C)O)C(C)C)[C@@H](C)CC)C(=O)N[C@@H](C)C(=O)N[C@@H](C)C(=O)N[C@@H](CCC(N)=O)C(=O)N[C@@H](CC(=O)O)C(=O)N[C@@](C)(Cc1ccccc1)C(=O)N[C@H](C(=O)N[C@@H](CCC(N)=O)C(=O)N[C@H](C(=O)N[C@H](C(=O)N[C@@H](C)C(=O)NCC(N)=O)[C@@H](C)CC)[C@@H](C)CC)C(C)C)C(=O)O)C(=O)O [Peptide 113] (H-HSQGS[αMeF]TSDVSKILDSK([PEG2-PEG2-γGlu-γGlu-Palmitoyl])AAQD[αMeF]VQIIAG-NH2; N-terminus assumed)
2.65 | 3.65 | 1.4 | CCCCCCCCCCCCCCCC(=O)N[C@@H](CCC(=O)N[C@@H](CCC(=O)NCCOCCOCCC(=O)NCCOCCOCCC(=O)NCCCC[C@H](NC(=O)[C@H](CO)NC(=O)[C@H](CC(=O)O)NC(=O)[C@H](CC(C)C)NC(=O)[C@@H](NC(=O)[C@H](CCCCN)NC(=O)[C@H](CO)NC(=O)[C@@H](NC(=O)[C@H](CC(=O)O)NC(=O)[C@H](CO)NC(=O)[C@@H](NC(=O)[C@](C)(Cc1ccccc1)NC(=O)[C@H](CO)NC(=O)CNC(=O)[C@H](CCC(N)=O)NC(=O)[C@H](CO)NC(=O)[C@@H](N)Cc1c[nH]cn1)[C@@H](C)O)C(C)C)[C@@H](C)CC)C(=O)N[C@@H](C)C(=O)N[C@@H](C)C(=O)N[C@@H](CCC(N)=O)C(=O)N[C@@H](CC(=O)O)C(=O)N[C@@](C)(Cc1ccccc1)C(=O)N[C@H](C(=O)N[C@@H](CCC(=O)O)C(=O)N[C@H](C(=O)N[C@H](C(=O)N[C@@H](C)C(=O)N[C@@H](CC(N)=O)C(N)=O)[C@@H](C)CC)[C@@H](C)CC)C(C)C)C(=O)O)C(=O)O [Peptide 114] (H-HSQGS[αMeF]TSDVSKILDSK([PEG2-PEG2-γGlu-γGlu-Palmitoyl])AAQD[αMeF]VEIIAN-NH2; N-terminus assumed)
